Experimental findings from ChEMBL document CHEMBL1201862, “PubChem BioAssay data set” (2004) are described below.

Among the test systems are A549; BT-549; CAKI-1; COLO 205; DU-145; EKVX; HCT-116; HCT-15; HL-60; HOP-92; IGROV-1; K562; M14; NCI-H23; NCI/ADR-RES; OVCAR-8; SK-MEL-28; SNB-19; SR; UO-31.
Assay in all cases: DTP human tumour cell line panel, 48 h

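Five concentrations, 48 hours, 96-well plates. The concentration for 50% growth inhibition is given as GI50.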 Active and inactive are the calls of the source. No stated cut-off is given here; in the data, active = GI50 up to about 1.1 µM and inactive = higher.

Turning to `O=c1cc(-c2ccccc2)c2ccc(O)c(CN(CCCl)CCCl)c2o1`, the GI50 – broadly, the concentration at which growth is held to half of that of the control – in the assay with A549 was 16.1 µM (inactive); in the assay with BT-549, 10.6 µM (inactive); in the assay on CAKI-1, 15.5 µM (inactive); with COLO 205, 12.4 µM (inactive); in the assay with DU-145, 33.6 µM (inactive); in the assay with EKVX, 25.5 µM (inactive). In addition, the GI50 in the assay on HCT-116 is 19.1 µM (inactive); in the assay with HCT-15 it was 22.1 µM; in the assay on HL-60, 13.4 µM (inactive); in the assay on HOP-92, 20.8 µM (inactive); in the assay with IGROV-1, 15.5 µM (inactive); in the assay on K562 it was 29 µM (inactive). In addition, the GI50 in the assay on M14 is 20.1 µM (inactive); with NCI-H23, 19.5 µM (inactive); with NCI/ADR-RES, 32.3 µM (inactive); with OVCAR-8, 15.8 µM (inactive); with SK-MEL-28, 18.8 µM (inactive); in the assay on SNB-19, 18.5 µM (inactive). Moreover, the figures for the GI50 with SR and in the assay on UO-31 were 11.1 µM (inactive) and 14.4 µM (inactive), respectively.

In the case of `CCSC(=O)/C=C1\CN(C(=O)OC(C)(C)C)C1C(=O)OC(C)(C)C` (stereo not given), the GI50 is 12.1 µM (inactive) in the assay on A549; 10.3 µM (inactive) in the assay on BT-549; 6.56 µM (inactive) with CAKI-1; 2.02 µM (inactive) in the assay on COLO 205; 4.95 µM (inactive) with DU-145; 10.5 µM (inactive) in the assay with EKVX. In addition, the GI50 with HCT-116 was 1.55 µM (inactive); in the assay on HCT-15, 1.52 µM; in the assay on HL-60 it was 1.87 µM (inactive); in the assay with HOP-92 it was 2.59 µM (inactive); in the assay on IGROV-1, 4.28 µM (inactive); in the assay with K562, 1.91 µM (inactive). Moreover, the GI50 with M14 was 1.77 µM (inactive); in the assay with NCI-H23 it was 2.6 µM (inactive); in the assay with NCI/ADR-RES, 2.74 µM (inactive); in the assay on OVCAR-8, 2.91 µM (inactive); in the assay with SK-MEL-28, 1.86 µM (inactive); in the assay on SNB-19, 12.1 µM (inactive). The GI50 with SR was 0.684 µM (active); in the assay on UO-31, 5.41 µM (inactive).

With `CCOC(=O)C(C)(Cc1ccc(O)cn1)NC(=O)c1ccccc1` (stereo not given), the GI50 with A549, in the assay with BT-549, in the assay on CAKI-1, with COLO 205, in the assay on DU-145 and with EKVX was > 100 µM (inactive) in each case. Also, the GI50 with HCT-116 is > 100 µM (inactive); with HCT-15, greater than 100 µM; with HL-60, > 100 µM (inactive); in the assay on HOP-92 it was 47 µM (inactive); with IGROV-1, > 100 µM (inactive); with K562, > 100 µM (inactive). Besides, the GI50 in the assay on M14, in the assay on NCI-H23, with NCI/ADR-RES, in the assay on OVCAR-8, in the assay with SK-MEL-28 and in the assay on SNB-19 was > 100 µM (inactive) throughout. The GI50 with SR and with UO-31 was > 100 µM (inactive) each time.

On to `Nc1cc2c(nc3c4ccccc4c(N)cc3[n+]2-c2cccc3ccccc23)c2ccccc12.Nc1cc2c(nc3c4ccccc4ccc3[n+]2-c2cccc3ccccc23)c2ccccc12`, for which the GI50 in the assay with A549 is 1.39 µM (inactive); in the assay on BT-549 it was 4.11 µM (inactive); in the assay with CAKI-1, 3.66 µM (inactive); in the assay on COLO 205 it was 1.93 µM (inactive); in the assay on DU-145, 3.03 µM (inactive); in the assay on EKVX, 1.61 µM (inactive). Moreover, the GI50 with HCT-116 is 1.67 µM (inactive); in the assay with HCT-15 it was 2.97 µM; in the assay with HL-60 it was 1.41 µM (inactive); in the assay on HOP-92 it was 1.2 µM (inactive); in the assay with IGROV-1, 1.71 µM (inactive); with K562 it was 0.448 µM (active). The GI50 in the assay on M14 was 2 µM (inactive); in the assay with NCI-H23 it was 1.15 µM (inactive); with NCI/ADR-RES, 8.18 µM (inactive); in the assay with OVCAR-8 it was 0.714 µM (active); in the assay on SK-MEL-28, 7.06 µM (inactive); in the assay with SNB-19 it was 4.56 µM (inactive). For the same molecule, the GI50 in the assay on SR is 1.24 µM (inactive); in the assay with UO-31, 2.59 µM (inactive).

`C=C1[C@@H](O)C[C@@]23CC[C@@H]4[C@@]5(C)CC[C@@H](OC(C)=O)C(C)(C)[C@@H]5C[C@@H](OC5OC(COC(C)=O)C(O)C(O)C5O)[C@@]4(C)C2=CC[C@H]3[C@H]1C` (stereo not given in full): the GI50 in the assay with A549 is 4.49 µM (inactive); in the assay on BT-549 it was 8.17 µM (inactive); in the assay with CAKI-1 it was 13.1 µM (inactive); in the assay with COLO 205, 2 µM (inactive); in the assay on DU-145, 10.5 µM (inactive); in the assay with EKVX it was 10.2 µM (inactive). In addition, the GI50 in the assay on HCT-116 is 3.43 µM (inactive); with HCT-15, 12.4 µM; with HL-60, 2.27 µM (inactive); with HOP-92 it was 7.38 µM (inactive); in the assay on IGROV-1, 3.8 µM (inactive); in the assay on K562, 2.99 µM (inactive). In addition, the GI50 was 4.49 µM (inactive) with M14; 10.7 µM (inactive) in the assay with NCI-H23; 17.5 µM (inactive) with NCI/ADR-RES; 7.13 µM (inactive) with OVCAR-8; 7.35 µM (inactive) in the assay with SK-MEL-28; 4.93 µM (inactive) with SNB-19. In addition, the figures for the GI50 in the assay with SR and in the assay on UO-31 were 2.33 µM (inactive) and 14.1 µM (inactive), respectively.

With `CCCCSc1n/c(=C\c2ccc(N(C)C)cc2)c2nnnn12`, the GI50 in the assay with A549, in the assay with BT-549, in the assay on CAKI-1, in the assay on COLO 205, in the assay on DU-145 and in the assay on EKVX was > 100 µM (inactive) in each case. The GI50 in the assay on HCT-116 was > 100 µM (inactive); in the assay on HCT-15, greater than 100 µM; in the assay on HL-60, > 100 µM (inactive); in the assay with HOP-92, > 100 µM (inactive); with IGROV-1, > 100 µM (inactive); in the assay with K562, > 100 µM (inactive). For the same molecule, the GI50 in the assay on M14, in the assay on NCI-H23, with NCI/ADR-RES, in the assay on OVCAR-8, with SK-MEL-28 and in the assay on SNB-19 was > 100 µM (inactive) each time. The GI50 was > 100 µM (inactive) in the assay with SR and 73.8 µM (inactive) with UO-31.

As for `COc1cccc(Nc2n[nH]c(NS(=O)(=O)c3cc(C)c(Cl)cc3S)n2)c1`, the GI50 in the assay on A549, in the assay with BT-549, in the assay on CAKI-1, with COLO 205, in the assay on DU-145 and in the assay with EKVX was > 100 µM (inactive) in each case. Also, the GI50 in the assay with HCT-116 was > 100 µM (inactive); with HCT-15, greater than 100 µM; in the assay with HL-60 it was > 100 µM (inactive); in the assay with HOP-92, > 100 µM (inactive); with IGROV-1, > 100 µM (inactive); with K562 it was > 100 µM (inactive). Also, the GI50 in the assay with M14, with NCI-H23, in the assay on NCI/ADR-RES, in the assay with OVCAR-8, in the assay on SK-MEL-28 and in the assay on SNB-19 was > 100 µM (inactive) throughout. Besides, the GI50 in the assay with SR and in the assay with UO-31 was > 100 µM (inactive) in each case.

Take `O=C1c2cccnc2-c2nccc3c2c1nc1cc(Br)ccc13`: the GI50 in the assay with A549 is 0.122 µM (active); in the assay on BT-549 it was 0.25 µM (active); with CAKI-1, 0.218 µM (active); in the assay with COLO 205, 0.798 µM (active); in the assay on DU-145, 0.121 µM (active); with EKVX it was 1.15 µM (inactive). Also, the GI50 is 0.025 µM (active) with HCT-116; 0.0721 µM in the assay on HCT-15; 0.0405 µM (active) with HL-60; 0.438 µM (active) in the assay on HOP-92; 0.14 µM (active) in the assay with IGROV-1; 0.033 µM (active) in the assay on K562. Moreover, the GI50 was 0.0553 µM (active) in the assay with M14; 0.0955 µM (active) in the assay with NCI-H23; 0.0375 µM (active) in the assay on NCI/ADR-RES; 0.0659 µM (active) with OVCAR-8; 0.0843 µM (active) with SK-MEL-28; 0.27 µM (active) with SNB-19. Besides, the GI50 was 0.0221 µM (active) in the assay with SR and 0.221 µM (active) in the assay with UO-31.

On to `CCSCC(=O)N1CCc2c([nH]c3ccccc23)C1=O`, for which the GI50 in the assay on A549 is > 100 µM (inactive); in the assay with BT-549 it was > 100 µM (inactive); with CAKI-1, > 100 µM (inactive); in the assay with COLO 205 it was > 100 µM (inactive); with DU-145, > 100 µM (inactive); in the assay with EKVX, 12.6 µM (inactive). Besides, the GI50 in the assay with HCT-116 was > 100 µM (inactive); with HCT-15, greater than 100 µM; in the assay on HL-60, > 100 µM (inactive); in the assay with HOP-92 it was 22.9 µM (inactive); in the assay on IGROV-1, > 100 µM (inactive); in the assay on K562 it was > 100 µM (inactive). Moreover, the GI50 with M14, in the assay on NCI-H23, in the assay with NCI/ADR-RES, in the assay on OVCAR-8, in the assay on SK-MEL-28 and in the assay on SNB-19 was > 100 µM (inactive) each time. Besides, the GI50 with SR and with UO-31 was > 100 µM (inactive) in each case.

As to `CC(N/N=C(\S)N1CCN(c2ccccn2)CC1)c1cccc[n+]1[O-]` (stereo not given), the GI50 in the assay with A549 is 8.65 µM (inactive); in the assay with BT-549, 43.2 µM (inactive); in the assay on CAKI-1 it was 14.2 µM (inactive); in the assay with COLO 205 it was 10.5 µM (inactive); with DU-145, 57.1 µM (inactive); with EKVX, 6.47 µM (inactive). Besides, the GI50 is 2.82 µM (inactive) in the assay on HCT-116; 3.28 µM with HCT-15; 3.13 µM (inactive) in the assay on HL-60; 20.5 µM (inactive) in the assay with HOP-92; 43.8 µM (inactive) with IGROV-1; 0.811 µM (active) with K562. Further, the GI50 in the assay with M14 was 28.3 µM (inactive); with NCI-H23, 28.2 µM (inactive); with NCI/ADR-RES, 2.9 µM (inactive); in the assay with OVCAR-8 it was 6.9 µM (inactive); in the assay with SK-MEL-28, 16.8 µM (inactive); in the assay with SNB-19, 32.9 µM (inactive). Besides, the GI50 was 4.58 µM (inactive) with SR and 8.13 µM (inactive) in the assay on UO-31.
